Results reported in BindingDB's records for doi:10.1002/1098-2396(20001215)38:4 (University of North Texas, 2000).

Molecular target: D(2) dopamine receptor (Rattus norvegicus, UniProt P61169)
Sequence (P61169 whole entry): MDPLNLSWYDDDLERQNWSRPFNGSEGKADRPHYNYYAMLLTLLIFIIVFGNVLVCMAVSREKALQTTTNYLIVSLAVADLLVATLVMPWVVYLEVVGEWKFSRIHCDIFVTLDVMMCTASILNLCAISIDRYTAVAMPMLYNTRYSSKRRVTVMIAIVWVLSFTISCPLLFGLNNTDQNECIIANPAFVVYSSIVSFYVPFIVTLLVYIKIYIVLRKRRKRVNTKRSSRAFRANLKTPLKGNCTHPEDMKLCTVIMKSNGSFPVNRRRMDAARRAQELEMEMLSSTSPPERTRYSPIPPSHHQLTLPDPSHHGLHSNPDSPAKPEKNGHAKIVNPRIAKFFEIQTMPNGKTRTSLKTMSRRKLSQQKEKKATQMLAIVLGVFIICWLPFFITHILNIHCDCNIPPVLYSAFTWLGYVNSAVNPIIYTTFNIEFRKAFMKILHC

| Ki [nM] | SMILES |
| --- | --- |
| 2710 | O=C(c1ccc(F)cc1)C1CCN(CCn2c(=O)[nH]c3ccccc3c2=O)CC1 [3-(2-{4-[(4-fluorophenyl)carbonyl]piperidin-1-yl}ethyl)-1,2,3,4-tetrahydroquinazoline-2,4-dione] |
| 1770 | Cc1ccc(N(CC2=NCCN2)c2cccc(O)c2)cc1 [SMR000059054] |

| SMILES | Ki [nM] |
| --- | --- |
| CC(C)NCC(O)COc1cccc2[nH]ccc12 (stereo not drawn) [LB-46] | > 10000 |
